Measurements taken from paper PMC6856805, “Environmental Risk Assessment for the Active Pharmaceutical Ingredient Mycophenolic Acid in European Surface Waters” (Environmental Toxicology and Chemistry, 2019).
Values after ≈ are worked out from the molar mass of the structure shown. Where two headings read alike, the source gives them in different places.

Tests used:
[1] = parameters: method as in Franquet‐Griell et al. (2017a); conditions: ref Franquet‐Griell et al. (2017a), cited from earlier work
[2] = Risk quotient PEC/PNEC or MEC/PNEC for STPs and surface freshwaters
Method: The potential risk for STPs and surface freshwater organisms was characterized by dividing the various PECs and MECs by the respective PNECs for MPA (Committee for Medicinal Products for Human Use 2015). Further risk assessments were performed for antibiotic resistance risk due to the described antibiotic activity of MPA, risk for environmental top predators, and also risk for humans through so‐called secondary poisoning from uptake of water or fish.

[3] = n-octanol/water distribution coefficient (log DOW), shake-flask method; format: physicochemical
Source text: Syntex derived many basic physicochemical properties for both MPM and MPA in the early 1990s. The results for MPA are mostly given in the present study.

[4] = parameters: method as in FASS 2018; conditions: OECD 209; ref FASS 2018; cited from earlier work
[5] = parameters: method as in Wishart et al. 2018; Royal Pharmaceutical Society 2018; conditions: ref Wishart et al. 2018; Royal Pharmaceutical Society 2018; cited from earlier work
Anabaena flos-aquae = assay: microbe, parasite or virus in culture; format: cell-based; conditions: 72 h
Source text: The new chronic ecotoxicity tests with cyanobacteria (D. Gilberg and G. Chambers, ECT Oekotoxikologie, Flörsheim, Germany, on behalf of F.Hoffmann‐La Roche, Basle, Switzerland, unpublished data), daphnids (P. Egeler and J. Chambers, ECT Oekotoxikologie, Flörsheim, Germany, on behalf of F.Hoffmann‐La Roche, Basle, Switzerland, unpublished data), and fish (D. Gilberg and G. Chambers, unpublished data) fulfilled the validity criteria of the respective OECD guidelines (see the Supplemental Data). […] The following endpoints were determined, all relating to GMMC: NOEC (both growth and yield) 83.9 µg MPA/L, LOEC 284 µg/L, ErC10 155 (95% confidence interval [CI] 137–171) µg/L, and ErC50 423 (95% CI 406–441) µg/L (D. Gilberg and G. Chambers, unpublished data).
An OECD 201 algal growth inhibition test was performed by ECT Oekotoxikologie, Flörsheim, Germany, with the cyanobacterian Anabaena flos-aquae with a series of concentrations of MPA in cyanobacteria test medium in different concentrations plus medium-only controls under continuous lighting over 72 h (Gilberg & Chambers 2017). The growth of the algae was measured by calibrated fluorescence intensity of sonicated test solution samples using a fluorometer after 24, 48 and 72 hours. The test concentrations were analysed by HPLC at the start and end of the test.

[6] = parameters: method as in Franquet‐Griell et al. (2017a); conditions: ref Franquet‐Griell et al. (2017a); cited from earlier work
[7] = system: inosine-5'-monophosphate dehydrogenase (IMPDH); parameters: method as in Wishart et al. 2018; Royal Pharmaceutical Society 2018; conditions: ref Wishart et al. 2018; Royal Pharmaceutical Society 2018; cited from earlier work
bacteria = assay: Derivation of provisional PNEC for antibiotic resistance (PNECABR)
Method: Antibiotic resistance risk is assessed through comparing PECs or MECs with a PNEC for formation or maintenance of antibiotic resistance (PNECABR). There is no universally accepted or regulatory algorithm for deriving a reliable PNECABR for bacteria, so for the time being this is approximated by applying assessment factors to bacterial minimal inhibitory concentrations (MICs). […] To be fully consistent with Bengtsson‐Palme and Larsson's (2016) approach to PNECABR derivation, the authors were contacted for help; they (J. Bengtsson‐Palme, Department of Infectious Diseases, Institute of Biomedicine, The Sahlgrenska Academy, University of Gothenberg, Gothenberg, Sweden, personal communication) state that “we only use species with 10 or more MIC observations, to avoid drawing conclusions from insufficient data […] . The only species with >10 observations in the Noto et al. (1969) paper is S[taphylococcus] aureus. In addition, when the MIC1% are selected, only one MIC [J.O.Straub's italics] value is selected per species (the lowest). Finally, the uncertainty factor for low sampling numbers is calculated as: (observed lowest MIC) × (number of tested species) ÷ 41.” Both these provisional PNECABR values were derived from the MPA MICs; the lower was selected and compared with the PECs and MECs.
Noto et al. (1969) tested the activity of MPA against various microorganisms, both fungi and some strains of bacteria. […] Higher inhibition of MPA was shown against pathogenic fungi of the genera Candida, Willia, Cryptococcus, Microsporum, Aspergillus, and Trichophyton, with MICs ranging from 3.9 to 500 mg/L (Noto et al. 1969).

COc1c(C)c2c(c(O)c1CC=C(C)CCC(=O)O)C(=O)OC2 [MPA, 6‐(1,3‐dihydro‐4‐hydroxy‐6‐methoxy‐7‐methyl‐3‐oxo‐5‐isobenzofuranyl)‐4‐methyl‐4‐hexenoic acid]
biodegradation rate constant k biodeg ([1]; fifth cycle): 0.006 min^–1
biodegradation rate constant k biodeg ([1]; first cycle): 0.0017 min^–1
highest PEC‐based risk quotient for STPs ([2]; PECSTP 8.83 µg/L / PNECSTP): 0.00128
highest MEC‐based risk quotient for STPs ([2]; STP effluent MEC 4.19 µg/L / PNECSTP): 0.0006
Risk quotient (PNECEC10), Average initial EMA EU PEC ([2]; STP removal 0%): 0.516
Risk quotient (PNECEC10), Average refined PEC per country ([2]; STP removal 12%): 0.141
Risk quotient (PNECEC10), Guadalquivir catchment low flow 99th percentile ePiE PEC ([2]; STP removal 12%): 21.41
Risk quotient (PNECEC10), Guadalquivir catchment low flow median ePiE PEC ([2]; STP removal 12%): <0.002
Risk quotient (PNECEC10), Guadalquivir catchment mean flow 1st percentile ePiE PEC ([2]; STP removal 12%): <0.002
Risk quotient (PNECEC10), Guadalquivir catchment mean flow 99th percentile ePiE PEC ([2]; STP removal 12%): 9.474
Risk quotient (PNECEC10), Guadalquivir catchment mean flow median ePiE PEC ([2]; STP removal 12%): <0.002
Risk quotient (PNECEC10), Highest refined PEC per country ([2]; STP removal 12%): 0.917
Risk quotient (PNECEC10), Lowest refined PEC per country ([2]; STP removal 12%): 0.003
Risk quotient (PNECEC10), Median refined PEC per country ([2]; STP removal 12%): 0.100
Risk quotient (PNECEC10), Ouse catchment low flow 99th percentile ePiE PEC ([2]; STP removal 12%): 4.967
Risk quotient (PNECEC10), Ouse catchment low flow median ePiE PEC ([2]; STP removal 12%): 0.336
Risk quotient (PNECEC10), Ouse catchment mean flow 1st percentile ePiE PEC ([2]; STP removal 12%): 0.002
Risk quotient (PNECEC10), Ouse catchment mean flow 99th percentile ePiE PEC ([2]; STP removal 12%): 1.226
Risk quotient (PNECEC10), Ouse catchment mean flow median ePiE PEC ([2]; STP removal 12%): 0.083
Risk quotient (PNECEC10), Rhine catchment low flow 99th percentile ePiE PEC ([2]; STP removal 12%): 4.597
Risk quotient (PNECEC10), Rhine catchment low flow median ePiE PEC ([2]; STP removal 12%): 0.036
Risk quotient (PNECEC10), Rhine catchment mean flow 1st percentile ePiE PEC ([2]; STP removal 12%): <0.002
Risk quotient (PNECEC10), Rhine catchment mean flow 99th percentile ePiE PEC ([2]; STP removal 12%): 1.157
Risk quotient (PNECEC10), Turia catchment low flow median ePiE PEC ([2]; STP removal 12%): 0.300
Risk quotient (PNECEC10), Turia catchment mean flow 1st percentile ePiE PEC ([2]; STP removal 12%): <0.002
Risk quotient (PNECEC10), Turia catchment mean flow 99th percentile ePiE PEC ([2]; STP removal 12%): 0.955
Risk quotient (PNECEC10), Turia catchment mean flow median ePiE PEC ([2]; STP removal 12%): 0.048
Risk quotient (PNECEC10), Average refined PEC per country ([2]; STP removal 43.6%): 0.100
Risk quotient (PNECEC10), Highest refined PEC per country ([2]; STP removal 43.6%): 0.660
Risk quotient (PNECEC10), Lowest refined PEC per country ([2]; STP removal 43.6%): 0.002
Risk quotient (PNECEC10), Median refined PEC per country ([2]; STP removal 43.6%): 0.072
Risk quotient (PNECEC10), Average refined PEC per country ([2]; STP removal 73.1%): 0.064
Risk quotient (PNECEC10), Highest refined PEC per country ([2]; STP removal 73.1%): 0.422
Risk quotient (PNECEC10), Lowest refined PEC per country ([2]; STP removal 73.1%): <0.002
Risk quotient (PNECEC10), Median refined PEC per country ([2]; STP removal 73.1%): 0.047
risk quotient for the PNECNOEC ([2]; initial use‐based Europe‐wide PEC): 2.27
Risk quotient (PNECEC10), Maximum MEC ([2]; surface water MECs): 1.131
Risk quotient (PNECEC10), Median MEC ([2]; surface water MECs): ~0.003
logD ([3]; pH 5, pH 5, read-out: Log D OW): 2.28
logD ([3]; pH 5, pH 5 to 9, read-out: log D OW values): ≤ 2.28
logD ([3]; pH 7, pH 7, read-out: Log D OW): 0.48
logD ([3]; pH 9, pH 9, read-out: Log D OW): ≤ -1.54
3‐h EC50, respiration inhibition [4]: 2213 µg/mL
EC10, respiration inhibition [4]: 69 µg/mL (≈ 215 µM)
fraction phase‐I‐metabolized to 6‐O‐desmethyl‐MPA [5]: less than 1%
terminal half‐life [5]: approximately 18 h
ErC10 (Anabaena flos-aquae; Anabaena flos-aquae): 155 µg/L
LOEC (Anabaena flos-aquae; Anabaena flos-aquae): 284 µg/L
NOEC (both growth and yield) (Anabaena flos-aquae; Anabaena flos-aquae): 83.9 µg MPA/L
EC50 (Anabaena flos-aquae; Dolichospermum flos-aquae, GMMC, read-out: ErC50): 0.423 µg/mL (≈ 1.32 µM)
hydrolytic degradation constant [6]: 0.0002 min^–1
type of inhibition [7]: reversible, potent, and noncompetitive inhibitor
provisional PNECABR (rounded down, selected) (bacteria; lower of the 2 values): 64 µg MPA/L
first provisional PNECABR (bacteria; lowest MIC divided by 100, following Kümmerer and Henninger (2003)): 312.5 µg/L
second provisional PNECABR (bacteria; procedure of Bengtsson‐Palme and Larsson (2016), before rounding): 76 µg/L
